# Measured values as given in US5843955A, “Compound LK6-A” (Kyowa Hakko Kogyo Co., Ltd., priority 1995, dated 1998).
# What was measured:
# Solubility = type: physicochemical
# T cells = test: Growth inhibition against T cells in murine mixed lymphocyte reaction; type: cell-based; conditions: Mus musculus, T-cell; 72 hours at 37° C., [^3 H]Thymidine incorporation (added 18 hours before end); read-out: 50% inhibitory concentration (IC50) against the growth of T cells in murine mixed lymphocyte reaction
# Description: Growth inhibition against T cells in murine mixed lymphocyte reaction
# Lymph node was aseptically excised from a B10.BR mouse (Japan SLC Inc.) with a solution comprising Hanks' […] salt solution (HBSS, Gibco) and 2.5% fetal calf serum (FCS, Gibco) (hereinafter referred to as HBSS-FCS) and resuspended into a culture medium (RPMI 1640, Nissui) containing 10% fetal calf serum (FCS, Gibco), 1% 200 mM L-Gultamine (Gibco), 1% Penicillin-Streptoymycin liquid (Gibco), 5% NCTC-109 (Gibco), 1% 1M HEPES (Gibco), 7.5% NaHCO3 (SIGMA) and 0.1% 50 mM 2-mercaptoethanol (Nakarai) (hereinafter referred to as RPMI 1640-FCS) to prepared a single cell suspension to give a density of 3×10^6 cells/ml. […]
# [^3 H]Thymidine was added to the wells in an amount of 1.0 μCi/well 18 hours before the end of each incubation. […] A toluene scintillator was added to the cells, and the amount of [^3 H]Thymidine radioactivity incorporated into the cells was determined using a liquid scintillation counter. The T cell growth inhibition rate was calculated according to the following equation. […]
# C: Amount of [^3 H]Thymidine radioactivity incorporated into the mixed cell suspension
# T: Amount of [^3 H]Thymidine radioactivity incorporated into the LK6-A-treated mixed cell suspension
# A: Amount of [^3 H]Thymidine radioactivity incorporated into only the B10.BR murine lymph node cells. […]
# L1210 cell = conditions: Tetrahedron Letters, 31, 3271 (1990); cited from earlier work
# reverse transcriptase = conditions: U.S. Pat. No. 4,959,370; J. Am. Chem. Soc., 112, 1 (1990); cited from earlier work
# [1] = system: Nippostrongylus brasiliensis; conditions: U.S. Pat. No. 4,959,370; J. Am. Chem. Soc., 112, 1 (1990); cited from earlier work
molecule,measurement,setting,value
CO/C=C/C(=O)c1cc2c3c(c(N)cc(NC(C)=O)c3n1)N=C2 [LK6-A],Solubility,Solubility; chloroform,sparingly soluble
same,Solubility,Solubility; dimethylsulfoxide (DMSO),Soluble
same,Solubility,Solubility; hexane,insoluble
same,Solubility,Solubility; methanol,sparingly soluble
same,Solubility,Solubility; water,sparingly soluble
same,IC50,T cells,9 nM
CNc1c2ncc3c4ccccc4[nH]c(c4nccc(=O)c14)c23 [plakinidine C],cytotoxic activity against the L1210 cell,L1210 cell,cytotoxic activity
plakinidine A,reverse transcriptase inhibitory activity,reverse transcriptase,reverse transcriptase inhibitory activity
same,activity against a parasite Nippostrongylus brasiliensis,[1],activity
same,cytotoxic activity against the L1210 cell,L1210 cell,cytotoxic activity
plakinidine B,activity against a parasite Nippostrongylus brasiliensis,[1],activity
same,cytotoxic activity against the L1210 cell,L1210 cell,cytotoxic activity
